Experimental data as given in patent publication US20020016384A1, “Hydrolysis-stable and polymerizable acrylophosphonic acid” (Ivoclar Vivadent AG., priority 2000, published 2002).

Experiments:
[1] = Investigation of the solubility in water and organic solvents; format: physicochemical
From the text: The solubility of monomers 3 and 5 and of a comparison monomer (comparison monomer 2; X=COO, Z=H) in water, ethanol, acetone, methylene chloride and ethyl acetate was investigated.
Solubility: ++: very good (>20 wt.-%), +: good (10-20 wt.-%), 0: practically insoluble (<1 wt.-%). [drawing 25]

[2] = Investigation of the hydrolytic stability by 1H-NMR; format: physicochemical; details: 20% solution in 1:1 water/ethanol; for change in the 1H-NMR spectrum (hydrolytic stability): stored at 37° C., 12-week investigation period, spectrum recorded weekly
Method: Monomers 3 and 5 are each dissolved in a 1:1 mixture of water and ethanol and stored as 20% solution at 37° C. The ^1H-NMR spectrum of the solution is recorded weekly.

Compound | Solubility in acetone [1] | Solubility in ethanol [1] | Solubility in ethyl acetate [1] | Solubility in methylene chloride [1] | Solubility in water [1] | change in the 1H-NMR spectrum (hydrolytic stability) [2] | hydrolytic elimination of the ethoxy group ([2]; 37° C., after 3 months, 1H-NMR)
C=C(COCCP(=O)(O)O)C(=O)O [Comparison monomer 2, reference compound] | 0 (practically insoluble (<1 wt.-%)) | 0 (practically insoluble (<1 wt.-%)) | 0 (practically insoluble (<1 wt.-%)) | 0 (practically insoluble (<1 wt.-%)) | ++ (very good (>20 wt.-%)) |  | 
C=C(COCCP(=O)(O)O)C(=O)N(CC)CC [Monomer 3, 2-[4-(dihydroxyphosphoryl)-2-oxabutyl]-acrylic acid diethylamide] | ++ (very good (>20 wt.-%)) | ++ (very good (>20 wt.-%)) | ++ (very good (>20 wt.-%)) | ++ (very good (>20 wt.-%)) | ++ (very good (>20 wt.-%)) | no change in the spectrum | 
C=C(C#N)COCCP(=O)(O)O [Monomer 5, 2-[4-(dihydroxyphosphoryl)-2-oxabutyl]-acrylonitrile] | ++ (very good (>20 wt.-%)) | ++ (very good (>20 wt.-%)) | ++ (very good (>20 wt.-%)) | ++ (very good (>20 wt.-%)) | ++ (very good (>20 wt.-%)) | no change in the spectrum | 
C=C(COCCP(=O)(OC)OC)C(=O)OCC [comparison monomer 1, 2-[4-(dimethoxyphosphoryl)-2-oxa-butyl]-acrylic acid ethyl ester, reference compound] |  |  |  |  |  |  | 20%
